Test results as given in patent US20160022751A1, “NOVEL COMPOSITION FOR TREATING ALZHEIMER'S DISEASE AND IMPROVING COGNITIVE FUNCTION OF ALZHEIMER'S PATIENTS” (GANGNEUNG-WONJU NATIONAL UNIVERSITY INDUSTRY ACADEMY …, priority 2014, published 2016).

Legend:
acetylcholine = conditions: Benishin et al., Pharmacol., 42: 223-229, 1991; cited from earlier work
ChAT = ChAT mRNA expression in N2a cells (RT-PCR); type: cell-based, mouse; conditions: single ginsenoside (FIG. 7A)
Text: (§1) The present inventor reported that ChAT overexpressing human neural stem cells restored cognition with an increase of ACh levels in rat model (Park et al., Exp. Neurol., 234: 521-526, 2012). This implies that the increase of the ChAT level in cholinergic neurons plays a critical role in cognition enhancement and thus the cholinergic gene locus “VAChT/ChAT” can be a putative target for therapeutic approaches on AD. Thus the present inventor prepared transfected Neuro-2a (N2a) cells that over-express the human ChAT and APP (designated as “N2a.hChAT” and “N2a.hAPPswe”, respectively, FIG. 6) and the N2a.hChAT and N2a.hAPPswe cells were treated with the faction groups 1 to 5 isolated in the Example 3 at a centration of 50 μg/ml. Neuro-2a mouse neuroblastoma cells (Korean Cell Line Bank, Korea) were grown in DMEM supplemented with 10% fetal bovine serum (FBS), 100 U/m penicillin, and 100 μg/ml streptomycin (Invitrogen, USA) under 5% CO2 at 37° C. in tissue culture flasks. For all experiments, cells were grown to greater than 90% confluency and subjected to no more than 20 cell passages. The medium was changed every 2-3 days. Subconfluent cells were harvested and seeded at a density of 5×10^5 cells or 5×10^6 cells in poly-L-lysine-coated 35 mm or 60 mm culture plates. To recover the cells that are not completely saturated for analysis, poly-L-lysine coated 35 mm or 60 mm culture was seeded at a concentration of 5×10^5 or 5×10^6 cells on the plates. The extent of expression of hChAT and APP in the N2a.hChAT and N2a.hAAPswe cells treated with the faction groups 1 to 5 was quantified with RT-PCR using primers described in the below Table 2. At this time, beta-actin was used as an internal control.
(§2) Specifically, total RNA extracts from N2a cells were prepared using the Trizol method (Invitrogen, USA) and cDNA was synthesized from RNA by reverse transcription of 1 μg of total RNA using a reverse transcription system (Improm-II, Promega, USA) and oligo dT primers in a total volume of 20 μL. PCR amplification was performed using the primers described in Table 2 (Bioneer, Korea). Quantitative real-time PCR reactions were run on a Rotor-Gene 6000 (Corbett Research, Australia) using SensiMix™ SYBR Hi-ROX Kit (Bioline, U.K.) in 20 μL reaction mixtures. Each real-time-PCR master mix contained 10 μL 2× enzyme master mix, 7.0 μL RNase free water, 1 μL of each primer (10 pM each), and 1 μL diluted template. The PCR was performed with an initial pre-incubation step for 15 min at 95° C., followed by 45 cycles of 95° C. for 15 s, annealing at 52° C. for 15 s, and extension at 72° C. for 10 s. Melting curve analysis was used to confirm formation of the expected PCR product, and products from all assays were additionally tested with 1.2% agarose gel electrophoresis to confirm the correct lengths. An inter-run calibrator was used, and a standard curve was created for each gene to obtain PCR efficiencies. Relative sample expression levels were calculated using Rotor-Gene 6000 Series Software 1.7, and were expressed relative to β-actin and corrected for between-run variability. Data for the experimental samples were expressed as a fold unit the internal control gene.
(§3) In order to examine whether five ginsenosides affect the expression of ChAT related to the synthesis of acetylcholine and VAChT controlling extracellular secretion of acetylcholine, the present inventor analyzed the expression level of ChAT and VAChT after treating the five ginsenosides to N2a […] cells, respectively.

VAChT = VAChT mRNA expression in N2a cells (RT-PCR); type: cell-based, mouse; conditions: single ginsenoside (FIG. 7B)
Text: as §1, §2, §3

Structure (SMILES)	release of acetylcholine (ACh) from hippocampal slices (acetylcholine)	expression of ChAT mRNA (ChAT)	expression of VAChT mRNA (VAChT)
CC(C)=CCC[C@](C)(O[C@@H]1O[C@H](CO[C@@H]2O[C@H](CO)[C@@H](O)[C@H](O)[C@H]2O)[C@@H](O)[C@H](O)[C@H]1O)[C@H]1CC[C@]2(C)[C@@H]1[C@H](O)C[C@@H]1[C@@]3(C)CC[C@H](O[C@@H]4O[C@H](CO)[C@@H](O)[C@H](O)[C@H]4O[C@@H]4O[C@H](CO)[C@@H](O)[C@H](O)[C@H]4O)C(C)(C)[C@@H]3CC[C@]12C [ginsenoside Rb1]	facilitate the release of acetylcholine	no significant increase	no significant increase
CC(C)=CCC[C@](C)(O[C@@H]1O[C@H](CO)[C@@H](O)[C@H](O)[C@H]1O)[C@H]1CC[C@]2(C)[C@@H]1[C@H](O)C[C@@H]1[C@@]3(C)CC[C@H](O)C(C)(C)[C@@H]3[C@@H](O[C@@H]3O[C@H](CO)[C@@H](O)[C@H](O)[C@H]3O)C[C@]12C [ginsenoside Rg1]	–	no significant increase	no significant increase
